Values quoted from earlier work, collected in the PKSmart pharmacokinetics tables (Seal et al. 2025).
*1 amine or outer side, *2 acyl side, *3 side chain or, on linkers, in order; H or OH if unused. Where a SMILES comes first, the peptide text is derived from it. Bridges are numbered along the chain shown (N, C = ends). [ ]: non-standard residue; d: D form. The star is where a group is joined. ξ: configuration not given here. X1 = O=C1CC(C(=O)[*:2])N([*:1])CC1CS[C@@H]1CN2CCC1CC2; ξThr(3R)(O-yl) = C[C@@H](O[*:3])C(N[*:1])C(=O)[*:2]; ξNMePhe(4-NMe2) = CNC(Cc1ccc(N(C)C)cc1)C(=O)O; Picolinoyl(3-OH) = O=C(c1ncccc1O)*; hArg = N=C(N)NCCCC[CH](N)C(=O)O; ξPhg = NC(C(=O)O)c1ccccc1; ξAbu = CCC(N)C(=O)O; ξP = O=C(O)C1CCCN1; Mpa = O=C(O)CCS

Assay: Lombardo, Berellini, Obach 2018, Drug Metab Dispos 46:1466, doi 10.1124/dmd.118.082966
Conditions: human; for MRT / Vd / clearance / half-life: in vivo, iv; for fraction unbound: plasma

CC(C)C(=O)OCC(=O)[C@]12O[C@@H](C3CCCCC3)O[C@@H]1C[C@@H]1[C@@H]3CC=C4CC(=O)C=C[C@]4(C)[C@H]3[C@@H](O)C[C@@]12C
MRT: 1.45 h | Vd: 2.9 L/kg | clearance: 33.3 mL/min/kg | half-life: 62.4 min | fraction unbound: 0.01

COc1cc2ncnc(Nc3ccc(F)c(Cl)c3)c2cc1OCCCN1CCOCC1
MRT: 32 h | Vd: 23 L/kg | half-life: 2040 min

CCCCc1nc(C)c(CC(=S)N(C)C)c(=O)n1Cc1ccc(-c2ccccc2-c2nnn[nH]2)cc1
MRT: 1.1 h | Vd: 0.6 L/kg | clearance: 9.6 mL/min/kg | half-life: 330 min

COc1cc(OC)c(C(=O)CCCN2CCCC2)c(OC)c1
MRT: 3.9 h | Vd: 1.3 L/kg | clearance: 5.6 mL/min/kg | half-life: 198 min

O=C(NCCNCC(O)COc1ccc(O)cc1)N1CCOCC1 (stereo not drawn)
MRT: 3.6 h | Vd: 0.64 L/kg | clearance: 3 mL/min/kg | half-life: 462 min

CO[C@@H]1C[C@@](C)(O)Cc2cc3c(c(O)c21)C(=O)c1c(O)cc2c(c1C3=O)O[C@@H]1O[C@]2(C)[C@@H](O)[C@@H](N(C)C)[C@@H]1O
MRT: 13.1 h | Vd: 9.14 L/kg | clearance: 11.6 mL/min/kg | half-life: 793 min

NCCCCC(NC(CCc1ccccc1)C(=O)O)C(=O)N1CCCC1C(=O)O (stereo not drawn)
clearance: 1.2 mL/min/kg

Nc1ccn([C@@H]2CO[C@H](CO)S2)c(=O)n1
MRT: 3.6 h | Vd: 0.84 L/kg | clearance: 3.9 mL/min/kg | half-life: 535 min

O=c1[nH]c(=O)n([C@@H]2O[C@H](CO)[C@H](O)[C@H](O)[C@H]2O)cc1F
MRT: 3.95 h | Vd: 0.33 L/kg | clearance: 1.38 mL/min/kg | half-life: 253 min

CC(CCc1ccccc1)NCC(O)c1ccc(O)c(C(N)=O)c1 (stereo not drawn)
clearance: 23 mL/min/kg | half-life: 264 min

CCN1CC(CCN2CCOCC2)C(c2ccccc2)(c2ccccc2)C1=O (stereo not drawn)
MRT: 3.7 h | Vd: 1.2 L/kg | clearance: 5.3 mL/min/kg | half-life: 246 min

O=P(O)(O)C(Sc1ccc(Cl)cc1)P(=O)(O)O
MRT: 9.5 h | Vd: 0.23 L/kg | clearance: 0.4 mL/min/kg | half-life: 462 min | fraction unbound: 0.1

COc1cc(CC2c3c(cc(OC)c(OC)c3OC)CC[N+]2(C)CCCOC(=O)CCC(=O)OCCC[N+]2(C)CCc3cc(OC)c(OC)c(OC)c3C2Cc2cc(OC)c(OC)c(OC)c2)cc(OC)c1OC (stereo not drawn)
MRT: 1.4 h | Vd: 0.22 L/kg | clearance: 2.7 mL/min/kg | half-life: 102 min | fraction unbound: 0.53

NS(=O)(=O)c1cc(C2(O)NC(=O)c3ccccc32)ccc1Cl (stereo not drawn)
MRT: 43 h | Vd: 3.9 L/kg | clearance: 1.5 mL/min/kg | half-life: 2160 min

CC(=O)Nc1ccc(OC[C@H](O)CNC(C)C)cc1
clearance: 2.28 mL/min/kg | half-life: 732 min | fraction unbound: 0.93

CC(C)n1c(/C=C/[C@H](O)C[C@H](O)CC(=O)O)c(-c2ccc(F)cc2)c2ccccc21
MRT: 0.44 h | Vd: 0.42 L/kg | half-life: 42 min

N=C(N)NCCCCC1NC(=O)CCSSCC(C(N)=O)NC(=O)C2CCCN2C(=O)C(Cc2c[nH]c3ccccc23)NC(=O)C(CC(=O)O)NC(=O)CNC1=O (stereo not drawn) ([Mpa][hArg]GDWPC-NH2; disulfide 1-7; configuration not given here)
MRT: 2.4 h | Vd: 0.17 L/kg | clearance: 1.2 mL/min/kg | half-life: 252 min | fraction unbound: 0.75

CCC1NC(=O)C(NC(=O)c2ncccc2O)[C@@H](C)OC(=O)C(c2ccccc2)NC(=O)C2CC(=O)C(CS[C@@H]3CN4CCC3CC4)CN2C(=O)C(Cc2ccc(N(C)C)cc2)N(C)C(=O)C2CCCN2C1=O (stereo partly drawn) ({Picolinoyl(3-OH)}-[ξThr(3R)(O-yl)][ξAbu][ξP][ξNMePhe(4-NMe2)][X1][ξPhg]; ester 1-C)
MRT: 0.7 h | Vd: 0.67 L/kg | clearance: 16 mL/min/kg | half-life: 52.2 min | fraction unbound: 0.34

CC[C@@H](CO)NC(=O)C1C=C2c3cccc4[nH]cc(c34)C[C@H]2N(C)C1 (stereo partly drawn)
MRT: 2.25 h | Vd: 0.96 L/kg | clearance: 7.18 mL/min/kg | half-life: 111 min

NN=c1cc2c(n[nH]1)CCN(C(=O)c1ccccc1)C2
MRT: 2.7 h | Vd: 2.2 L/kg | clearance: 13 mL/min/kg | half-life: 336 min

C=C1/C(=C\C=C2/CCC[C@]3(C)[C@@H]([C@H](C)CCCC(C)(C)O)CC[C@@H]23)C[C@@H](O)C[C@@H]1O
MRT: 13.3 h | Vd: 0.25 L/kg | clearance: 0.31 mL/min/kg | half-life: 660 min

CON=C(C(=O)NC1C(=O)N2C(C(=O)[O-])=C(C[n+]3ccc(-c4cnco4)cc3)CS[C@H]12)c1csc(N)n1 (stereo partly drawn)
MRT: 2.64 h | Vd: 0.22 L/kg | clearance: 1.76 mL/min/kg | half-life: 107 min

CC(Oc1ccccc1)C(=O)NC1C(=O)N2C(C(=O)O)C(C)(C)S[C@H]12 (stereo partly drawn)
MRT: 1.2 h | Vd: 0.3 L/kg | clearance: 4.2 mL/min/kg | half-life: 54.6 min | fraction unbound: 0.25

COC(=O)C(c1ccccc1Cl)N1CCc2sccc2C1 (stereo not drawn)
MRT: 1.42 h | Vd: 2.01 L/kg | clearance: 23.6 mL/min/kg | half-life: 304 min | fraction unbound: 0.02

CCCCCCC(C)(C)c1cc(O)c2c(c1)OC(C)(C)[C@H]1CC=C(CO)C[C@H]21
MRT: 3.94 h | Vd: 5.06 L/kg | clearance: 21.4 mL/min/kg | half-life: 440 min

CC(=O)O[C@H]1C[C@@H]2CC[C@@H]3[C@H](CC[C@@]4(C)[C@H]3C[C@H]([N+]3(C)CCCCC3)[C@@H]4OC(C)=O)[C@@]2(C)C[C@@H]1N1CCCCC1
MRT: 1.1 h | Vd: 0.3 L/kg | clearance: 4.5 mL/min/kg | half-life: 84 min | fraction unbound: 0.25

O=c1[nH]c2ccccc2n1CCCN1CCC(n2c(=O)[nH]c3cc(Cl)ccc32)CC1
MRT: 6 h | Vd: 3.4 L/kg | clearance: 9.5 mL/min/kg

CC(=O)C(C#N)C(=O)Nc1ccc(C(F)(F)F)cc1 (stereo not drawn)
MRT: 367 h | Vd: 0.16 L/kg | clearance: 0.007 mL/min/kg | half-life: 21000 min

Cc1[nH]c(=O)c(C#N)cc1-c1ccncc1
MRT: 0.67 h | Vd: 0.25 L/kg | clearance: 6.2 mL/min/kg | half-life: 48 min

O=[N+]([O-])OCC(CO[N+](=O)[O-])O[N+](=O)[O-]
clearance: 194 mL/min/kg

CON=C(C(=O)NC1C(=O)N2C(C(=O)[O-])=C(C[N+]34CCC(C(N)=O)(CC3)CC4)CSC12)c1nsc(N)n1 (stereo not drawn)
MRT: 2.6 h | Vd: 0.27 L/kg | clearance: 1.7 mL/min/kg | half-life: 132 min

O=[N+]([O-])O[C@H]1CO[C@H]2[C@@H]1OC[C@H]2O
MRT: 2.3 h | Vd: 0.86 L/kg | clearance: 6.2 mL/min/kg | half-life: 114 min

CN1CCc2nc(C(=O)N[C@@H]3CC(C(=O)N(C)C)CC[C@@H]3NC(=O)C(=O)Nc3ccc(Cl)cn3)sc2C1 (stereo partly drawn)
fraction unbound: 0.5

NS(=O)(=O)c1cc2c(cc1C(F)(F)F)NCNS2(=O)=O
MRT: 3.8 h | Vd: 2.2 L/kg | clearance: 9.7 mL/min/kg | half-life: 312 min

N=C(N)N/N=C1\CCc2c(C(=N)N)cccc21
MRT: 104 h | Vd: 20 L/kg | clearance: 3.2 mL/min/kg | half-life: 3920 min

CC1(C)S[C@@H]2C(NC(=O)C(NC(=O)NC(=N)N)c3ccccc3)C(=O)N2C1C(=O)O (stereo partly drawn)
MRT: 2.5 h | Vd: 0.24 L/kg | clearance: 1.6 mL/min/kg | half-life: 125 min | fraction unbound: 0.8

OCCN(CCc1c[nH]c2ccccc12)Cc1ccc(/C=C/C(O)=NO)cc1
MRT: 4.78 h | Vd: 2.17 L/kg | clearance: 7.6 mL/min/kg | half-life: 746 min | fraction unbound: 0.23
